Structures can show the parent of a compound that is named as a salt.
Target: T1, MPO (purified from human polynuclear leukocytes) (Homo sapiens, UniProt P05164)
T1 construct: purified from human polynuclear leukocytes; purchased Calbiochem/EMD Biosciences; host or cells: human polynuclear leukocytes (natural source)
Test: MPO Amplex Red Activity Assay
Type: biochemical
Conditions: Table 1, 2 μM H2O2, pH 7.4
Outline: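 Human leukocyte MPO […] oxidises 30 μM Amplex Red with 2 μM H2O2 in 50 mM NaPi pH 7.4, 150 mM NaCl, 1 mM DTPA, 2% DMSO. Resorufin fluorescence (ex 530/em 580 nm) read every 20 s, minus catalase background. kobs from the first 600 s, corrected for auto-inactivation, fit versus [I] for kinact/KI.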

T1 sequence (P05164 279-745 limits assumed): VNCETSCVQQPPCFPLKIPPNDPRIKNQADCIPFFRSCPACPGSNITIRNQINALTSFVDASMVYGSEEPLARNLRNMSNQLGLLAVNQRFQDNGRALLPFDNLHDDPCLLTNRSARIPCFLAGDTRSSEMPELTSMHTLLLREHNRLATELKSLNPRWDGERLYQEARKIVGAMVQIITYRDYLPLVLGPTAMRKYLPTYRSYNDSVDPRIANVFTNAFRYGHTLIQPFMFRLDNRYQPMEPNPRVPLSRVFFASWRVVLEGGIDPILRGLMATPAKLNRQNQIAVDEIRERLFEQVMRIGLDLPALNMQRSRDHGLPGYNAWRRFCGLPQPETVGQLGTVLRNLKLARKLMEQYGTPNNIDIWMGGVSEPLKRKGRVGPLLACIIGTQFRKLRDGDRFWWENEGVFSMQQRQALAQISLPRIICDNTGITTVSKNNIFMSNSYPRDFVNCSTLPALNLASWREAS
T1 sequence (P05164 165-273 limits assumed): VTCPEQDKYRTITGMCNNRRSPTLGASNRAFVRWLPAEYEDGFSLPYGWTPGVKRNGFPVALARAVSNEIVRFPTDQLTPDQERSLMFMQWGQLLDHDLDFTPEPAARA

COc1ccc(-c2cc(=O)[nH]c(=S)n2CCC(=N)N)c(OC)c1 [Example 187, 3-[6-(2,4-dimethoxyphenyl)-4-oxo-2-thioxo-3,4-dihydropyrimidin-1(2H)-yl]propanimidamide trifluoroacetate]
MPO kinact/Ki: 5640 1/s per M

COc1ccc(-c2cc(=O)[nH]c(=S)n2C(C)C(N)=O)c(OC)c1 (stereo not shown) [Example 188, 2-[6-(2,4-dimethoxyphenyl)-4-oxo-2-thioxo-3,4-dihydropyrimidin-1(2H)-yl]propanamide]
MPO kinact/Ki: 2180 1/s per M

COc1ccc(-c2cc(=O)[nH]c(=S)n2CCC(N)=O)c(OC)c1 [Example 189, 3-[6-(2,4-dimethoxyphenyl)-4-oxo-2-thioxo-3,4-dihydropyrimidin-1(2H)-yl]propanamide]
MPO kinact/Ki: 2210 1/s per M

CNC(=O)Cn1c(-c2ccc(OC)cc2OC)cc(=O)[nH]c1=S [Example 190, 2-[6-(2,4-dimethoxyphenyl)-4-oxo-2-thioxo-3,4-dihydropyrimidin-1(2H)-yl]-N-methylacetamide]
MPO kinact/Ki: 4090 1/s per M

COc1ccc(-c2cc(=O)[nH]c(=S)n2CCCCN)c(OC)c1 [Example 191, 1-(4-aminobutyl)-6-(2,4-dimethoxyphenyl)-2-thioxo-2,3-dihydropyrimidin-4(1H)-one hydrochloride]
MPO kinact/Ki: 14100 1/s per M

CNCCCn1c(-c2ccc(OC)cc2OC)cc(=O)[nH]c1=S [Example 192, 6-(2,4-dimethoxyphenyl)-1-[3-(methylamino)propyl]-2-thioxo-2,3-dihydropyrimidin-4(1H)-one hydrochloride]
MPO kinact/Ki: 10800 1/s per M

COc1ccc(-c2cc(=O)[nH]c(=S)n2CCC(=O)O)c(OC)c1 [Example 193, 3-[6-(2,4-dimethoxyphenyl)-4-oxo-2-thioxo-3,4-dihydropyrimidin-1(2H)-yl]propanoic acid]
MPO kinact/Ki: 458 1/s per M

COc1ccc(-c2cc(=O)[nH]c(=S)n2CC(C)(C)O)c(OC)c1 [Example 194, 6-(2,4-dimethoxyphenyl)-1-(2-hydroxy-2-methylpropyl)-2-thioxo-2,3-dihydropyrimidin-4(1H)-one]
MPO kinact/Ki: 2560 1/s per M

COc1ccc(-c2cc(=O)[nH]c(=S)n2CC(C)CO)c(OC)c1 (stereo not shown) [Example 195, 6-(2,4-dimethoxyphenyl)-1-(3-hydroxy-2-methylpropyl)-2-thioxo-2,3-dihydropyrimidin-4(1H)-one]
MPO kinact/Ki: 5350 1/s per M

COc1ccc(-c2cc(=O)[nH]c(=S)n2CCCCO)c(OC)c1 [Example 196, 6-(2,4-dimethoxyphenyl)-1-(4-hydroxybutyl)-2-thioxo-2,3-dihydropyrimidin-4(1H)-one]
MPO kinact/Ki: 5640 1/s per M

COc1ccc(-c2cc(=O)[nH]c(=S)n2C[C@H](O)CN)c(OC)c1 [Example 197, 1-[(2R)-3-amino-2-hydroxypropyl]-6-(2,4-dimethoxyphenyl)-2-thioxo-2,3-dihydropyrimidin-4(1H)-one trifluoroacetate]
MPO kinact/Ki: 5650 1/s per M

COc1cc(OC)c(-c2cc(=O)[nH]c(=S)n2CCN)cc1OC [Example 198, 1-(2-aminoethyl)-2-thioxo-6-(2,4,5-trimethoxyphenyl)-2,3-dihydropyrimidin-4(1H)-one hydrochloride]
MPO kinact/Ki: 8460 1/s per M

COc1ccc(-c2cc(=O)[nH]c(=S)n2CC(O)CN)c(OC)c1 (stereo not shown) [Example 199, 1-(3-amino-2-hydroxypropyl)-6-(2,4-dimethoxyphenyl)-2-thioxo-2,3-dihydropyrimidin-4(1H)-one hydrochloride]
MPO kinact/Ki: 9080 1/s per M

COc1ccc(-c2cc(=O)[nH]c(=S)n2C[C@@H](O)CN)c(OC)c1 [Example 200, 1-[(2S)-3-amino-2-hydroxypropyl]-6-(2,4-dimethoxyphenyl)-2-thioxo-2,3-dihydropyrimidin-4(1H)-one trifluoroacetate]
MPO kinact/Ki: 4930 1/s per M

COc1ccc(-c2cc(=O)[nH]c(=S)n2CC(O)CO)c(OC)c1 (stereo not shown) [Example 201, 1-(2,3-dihydroxypropyl)-6-(2,4-dimethoxyphenyl)-2-thioxo-2,3-dihydropyrimidin-4(1H)-one]
MPO kinact/Ki: 4350 1/s per M

COc1cc(OC)c(-c2cc(=O)[nH]c(=S)n2CCO)cc1OC [Example 202, 1-(2-hydroxyethyl)-2-thioxo-6-(2,4,5-trimethoxyphenyl)-2,3-dihydropyrimidin-4(1H)-one]
MPO kinact/Ki: 8280 1/s per M

COc1ccc(-c2cc(=O)[nH]c(=S)n2C[C@H](O)CO)c(OC)c1 [Example 203, 1-[(2S)-2,3-dihydroxypropyl]-6-(2,4-dimethoxyphenyl)-2-thioxo-2,3-dihydropyrimidin-4(1H)-one]
MPO kinact/Ki: 3450 1/s per M

COc1ccc(-c2cc(=O)[nH]c(=S)n2C[C@@H](O)CO)c(OC)c1 [Example 204, 1-[(2R)-2,3-dihydroxypropyl]-6-(2,4-dimethoxyphenyl)-2-thioxo-2,3-dihydropyrimidin-4(1H)-one]
MPO kinact/Ki: 3900 1/s per M

COc1ccc(-c2cc(=O)[nH]c(=S)n2CC(N)=O)c2ccccc12 [Example 205, 2-[6-(4-methoxy-1-naphthyl)-4-oxo-2-thioxo-3,4-dihydropyrimidin-1(2H)-yl]acetamide]
MPO kinact/Ki: 4900 1/s per M

COc1cc(-c2cc(=O)[nH]c(=S)n2CCO)c(OC)cc1Cl [Example 206, 6-(4-chloro-2,5-dimethoxyphenyl)-1-(2-hydroxyethyl)-2-thioxo-2,3-dihydropyrimidin-4(1H)-one]
MPO kinact/Ki: 7690 1/s per M

COc1ccc(-c2cc(=O)[nH]c(=S)n2Cc2ccn[nH]2)c(OC)c1 [Example 207, 6-(2,4-dimethoxyphenyl)-1-(1H-pyrazol-5-ylmethyl)-2-thioxo-2,3-dihydropyrimidin-4(1H)-one]
MPO kinact/Ki: 2400 1/s per M

NC(=O)Cn1c(-c2ccccc2OC(F)(F)F)cc(=O)[nH]c1=S [Example 208, 2-{4-oxo-2-thioxo-6-[2-(trifluoromethoxy)phenyl]-3,4-dihydropyrimidin-1(2H)-yl}acetamide]
MPO kinact/Ki: 3760 1/s per M

COc1ccc(-c2cc(=O)[nH]c(=S)n2Cc2ncn[nH]2)c(OC)c1 [Example 209, 6-(2,4-dimethoxyphenyl)-2-thioxo-1-(1H-1,2,4-triazol-5-ylmethyl)-2,3-dihydropyrimidin-4(1H)-one]
MPO kinact/Ki: 4360 1/s per M

COCCn1c(-c2ccc(OC(F)(F)F)cc2)cc(=O)[nH]c1=S [Example 210, 1-(2-methoxyethyl)-2-thioxo-6-[4-(trifluoromethoxy)phenyl]-2,3-dihydropyrimidin-4(1H)-one]
MPO kinact/Ki: 968 1/s per M

COc1ccc(-c2cc(=O)[nH]c(=S)n2CC2CCCN2)c(OC)c1 (stereo not shown) [Example 211, 6-(2,4-dimethoxyphenyl)-1-(pyrrolidin-2-ylmethyl)-2-thioxo-2,3-dihydropyrimidin-4(1H)-one hydrochloride]
MPO kinact/Ki: 6090 1/s per M

COc1ccc(-c2cc(=O)[nH]c(=S)n2CC2CCNC2)c(OC)c1 (stereo not shown) [Example 212, 6-(2,4-dimethoxyphenyl)-1-(pyrrolidin-3-ylmethyl)-2-thioxo-2,3-dihydropyrimidin-4(1H)-one hydrochloride]
MPO kinact/Ki: 7590 1/s per M

COc1ccc(-c2cc(=O)[nH]c(=S)n2C[C@@H]2CCCO2)c(OC)c1 [Example 213, 6-(2,4-dimethoxyphenyl)-1-[(2S)-tetrahydrofuran-2-ylmethyl]-2-thioxo-2,3-dihydropyrimidin-4(1H)-one]
MPO kinact/Ki: 4690 1/s per M

COc1ccc(-c2cc(=O)[nH]c(=S)n2C[C@H]2CCCO2)c(OC)c1 [Example 214, 6-(2,4-dimethoxyphenyl)-1-[(2R)-tetrahydrofuran-2-ylmethyl]-2-thioxo-2,3-dihydropyrimidin-4(1H)-one]
MPO kinact/Ki: 10700 1/s per M

COc1ccc(-c2cc(=O)[nH]c(=S)n2CCNC(C)=O)c(OC)c1 [Example 215, N-{2-[6-(2,4-dimethoxyphenyl)-4-oxo-2-thioxo-3,4-dihydropyrimidin-1(2H)-yl]ethyl}acetamide]
MPO kinact/Ki: 1920 1/s per M

CNC(=O)CCn1c(-c2ccc(OC)cc2OC)cc(=O)[nH]c1=S [Example 216, 3-[6-(2,4-dimethoxyphenyl)-4-oxo-2-thioxo-3,4-dihydropyrimidin-1(2H)-yl]-N-methylpropanamide]
MPO kinact/Ki: 3260 1/s per M

COc1ccc(-c2cc(=O)[nH]c(=S)n2CC(C)C(N)=O)c(OC)c1 (stereo not shown) [Example 217, 3-[6-(2,4-dimethoxyphenyl)-4-oxo-2-thioxo-3,4-dihydropyrimidin-1(2H)-yl]-2-methylpropanamide]
MPO kinact/Ki: 3940 1/s per M

COc1ccc(-c2cc(=O)[nH]c(=S)n2CCCCCN)c(OC)c1 [Example 218, 1-(5-aminopentyl)-6-(2,4-dimethoxyphenyl)-2-thioxo-2,3-dihydropyrimidin-4(1H)-one hydrochloride]
MPO kinact/Ki: 14100 1/s per M

COc1ccc(-c2cc(=O)[nH]c(=S)n2CCC(C)(C)N)c(OC)c1 [Example 219, 1-(3-amino-3-methylbutyl)-6-(2,4-dimethoxyphenyl)-2-thioxo-2,3-dihydropyrimidin-4(1H)-one hydrochloride]
MPO kinact/Ki: 1970 1/s per M

COc1ccc(-c2cc(=O)[nH]c(=S)n2CCCN(C)C)c(OC)c1 [Example 220, 6-(2,4-dimethoxyphenyl)-1-[3-(dimethylamino)propyl]-2-thioxo-2,3-dihydropyrimidin-4(1H)-one]
MPO kinact/Ki: 2420 1/s per M
